Measured values from ChEMBL document CHEMBL3867460, “Identification of 4-(2-furanyl)pyrimidin-2-amines as Janus kinase 2 inhibitors” (Bioorg Med Chem, 2017).

What was measured:
[1] = biological target: Tyrosine-protein kinase JAK2 (Homo sapiens, UniProt O60674)
Description: Inhibition of GST-tagged recombinant human JAK2 expressed in baculovirus using TK-substrate-biotin as substrate preincubated for 5 mins followed by substrate addition after 30 mins by HTRF assay

Homo sapiens = species on record: Homo sapiens; assay: Selectivity ratio of IC50 for human JAK3 expressed in baculovirus to IC50 for human JAK2 expressed in baculovirus
[2] = biological target: T1, Tyrosine-protein kinase JAK3 (Homo sapiens, UniProt P52333)
T1 sequence (P52333 whole entry): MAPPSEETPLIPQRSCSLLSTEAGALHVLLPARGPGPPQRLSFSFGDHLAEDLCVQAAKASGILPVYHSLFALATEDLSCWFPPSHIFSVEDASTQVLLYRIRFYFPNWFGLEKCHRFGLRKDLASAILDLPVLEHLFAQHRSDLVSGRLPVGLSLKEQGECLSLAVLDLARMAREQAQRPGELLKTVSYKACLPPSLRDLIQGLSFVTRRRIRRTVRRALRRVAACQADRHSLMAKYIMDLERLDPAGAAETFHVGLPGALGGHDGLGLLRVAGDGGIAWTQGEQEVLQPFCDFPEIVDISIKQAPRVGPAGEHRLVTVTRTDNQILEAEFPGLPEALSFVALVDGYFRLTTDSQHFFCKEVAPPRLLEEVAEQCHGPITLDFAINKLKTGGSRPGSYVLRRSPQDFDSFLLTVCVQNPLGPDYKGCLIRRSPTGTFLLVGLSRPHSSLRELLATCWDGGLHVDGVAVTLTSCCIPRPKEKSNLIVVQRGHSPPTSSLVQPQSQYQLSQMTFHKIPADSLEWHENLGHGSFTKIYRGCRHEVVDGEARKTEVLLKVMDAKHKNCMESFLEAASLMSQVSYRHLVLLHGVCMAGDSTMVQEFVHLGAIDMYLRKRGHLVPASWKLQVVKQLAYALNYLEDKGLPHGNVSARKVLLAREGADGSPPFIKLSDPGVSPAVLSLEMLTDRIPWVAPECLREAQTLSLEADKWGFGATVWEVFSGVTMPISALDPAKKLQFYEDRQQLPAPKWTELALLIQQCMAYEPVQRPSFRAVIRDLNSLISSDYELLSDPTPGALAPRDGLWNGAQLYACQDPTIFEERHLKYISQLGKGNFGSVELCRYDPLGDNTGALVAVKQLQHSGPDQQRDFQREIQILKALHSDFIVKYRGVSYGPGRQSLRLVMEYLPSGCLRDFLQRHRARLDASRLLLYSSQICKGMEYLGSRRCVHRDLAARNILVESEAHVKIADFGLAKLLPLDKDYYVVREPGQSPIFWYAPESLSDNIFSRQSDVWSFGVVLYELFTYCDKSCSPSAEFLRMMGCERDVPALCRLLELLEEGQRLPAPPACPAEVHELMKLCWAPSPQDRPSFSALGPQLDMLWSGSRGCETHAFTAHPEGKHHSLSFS
Description: Inhibition of GST-tagged recombinant human cytoplasmic JAK3 expressed in baculovirus using TK-substrate-biotin as substrate preincubated for 5 mins followed by substrate addition after 30 mins by HTRF assay

[3] = biological target: Tyrosine-protein kinase JAK2 (Homo sapiens, UniProt O60674, V617F)
Sequence of Tyrosine-protein kinase JAK2 (Homo sapiens, UniProt O60674, V617F) (O60674 whole entry V617F): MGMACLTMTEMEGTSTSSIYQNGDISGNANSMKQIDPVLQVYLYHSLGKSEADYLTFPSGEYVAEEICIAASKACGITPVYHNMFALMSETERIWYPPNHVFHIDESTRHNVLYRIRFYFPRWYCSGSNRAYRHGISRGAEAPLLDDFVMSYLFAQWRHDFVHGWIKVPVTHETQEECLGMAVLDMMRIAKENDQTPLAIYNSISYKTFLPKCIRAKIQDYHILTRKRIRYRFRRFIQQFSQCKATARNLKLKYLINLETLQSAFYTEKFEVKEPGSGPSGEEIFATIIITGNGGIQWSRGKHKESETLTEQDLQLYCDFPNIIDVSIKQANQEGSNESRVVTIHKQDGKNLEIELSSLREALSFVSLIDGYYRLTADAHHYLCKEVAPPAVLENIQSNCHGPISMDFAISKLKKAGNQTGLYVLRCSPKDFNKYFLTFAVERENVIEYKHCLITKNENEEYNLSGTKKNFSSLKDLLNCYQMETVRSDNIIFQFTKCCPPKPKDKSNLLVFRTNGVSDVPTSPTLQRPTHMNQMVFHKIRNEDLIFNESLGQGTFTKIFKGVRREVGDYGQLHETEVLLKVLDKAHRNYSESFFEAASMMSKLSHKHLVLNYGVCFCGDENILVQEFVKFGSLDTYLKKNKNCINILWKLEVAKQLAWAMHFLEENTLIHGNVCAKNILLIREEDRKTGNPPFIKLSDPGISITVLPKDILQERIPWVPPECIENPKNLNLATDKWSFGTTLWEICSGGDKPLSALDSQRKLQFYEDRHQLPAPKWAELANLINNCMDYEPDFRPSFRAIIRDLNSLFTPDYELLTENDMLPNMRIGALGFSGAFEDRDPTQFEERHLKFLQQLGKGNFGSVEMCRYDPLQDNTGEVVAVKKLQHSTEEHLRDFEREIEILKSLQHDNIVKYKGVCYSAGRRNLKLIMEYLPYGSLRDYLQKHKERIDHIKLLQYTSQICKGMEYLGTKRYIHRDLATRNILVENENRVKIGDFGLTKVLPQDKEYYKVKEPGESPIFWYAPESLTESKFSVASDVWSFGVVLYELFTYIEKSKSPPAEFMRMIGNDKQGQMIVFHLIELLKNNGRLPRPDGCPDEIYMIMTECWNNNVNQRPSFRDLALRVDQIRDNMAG

[4] = biological target: Tyrosine-protein kinase SYK (Homo sapiens, UniProt P43405); assay: Inhibition of SYK (unknown origin)

Sequence of Tyrosine-protein kinase JAK2 (Homo sapiens, UniProt O60674) (O60674 whole entry): as the sequence (O60674 whole entry V617F) above, with F617V counted along it

Structure (SMILES)	IC50 [1] [nM]	Ratio IC50 (Homo sapiens)	IC50 [2] [nM]	IC50 [3] [nM]	IC50 [4] [nM]
Cc1cnc(Nc2ccc(/C=C/C(=O)NO)cc2)nc1-c1cc2ccccc2o1	226	7	1580	–	–
CS(=O)(=O)N1CCc2oc(-c3ccnc(Nc4ccc(N5CCOCC5)cc4)n3)cc2C1	42.9	5.3	226	–	–
CCOC(=O)COc1cccc(Nc2ncc(C)c(-c3cc4ccccc4o3)n2)c1	18.9	4.6	87.6	–	–
Cc1cnc(Nc2ccc(OCC(=O)O)cc2)nc1-c1cc2ccccc2o1	16.6	21.7	359	–	–
Cc1cnc(Nc2ccc(N3CCOCC3)cc2)nc1-c1cc2c(o1)CCN(S(C)(=O)=O)C2	0.7	33.1	23.2	1250	49.8
CN1CCN(c2ccc(Nc3nccc(-c4cc5c(o4)CCN(S(C)(=O)=O)C5)n3)cc2)CC1	–	–	204	–	–
N#Cc1ccc2oc(-c3nc(Nc4ccc(N5CCNCC5)cc4)ncc3C(F)(F)F)cc2c1	137	1.5	202	–	–
Cc1cnc(Nc2ccc(N3CCOCC3)cc2)nc1-c1cc2cc(C#N)ccc2o1	10.4	35	364	3090	–
CS(=O)(=O)N1CCc2oc(-c3ccnc(Nc4ccc(OCCN5CCCC5)cc4)n3)cc2C1	164	3.1	501	1260	–
CS(=O)(=O)N1CCc2oc(-c3nc(Nc4ccc(OCCN5CCCC5)cc4)ncc3F)cc2C1	55.4	3.2	176	–	–
N#CCC(=O)N1CCc2oc(-c3ccnc(Nc4ccc(N5CCOCC5)cc4)n3)cc2C1	13.2	10.6	140	5520	–
Cc1cnc(Nc2ccc(N3CCOCC3)cc2)nc1-c1cc2ccccc2o1	–	–	183	–	–
CCOC(=O)COc1ccc(Nc2ncc(C)c(-c3cc4ccccc4o3)n2)cc1	324	3.7	1200	–	–
Cc1cnc(Nc2ccc(N3CCOCC3)cc2)nc1-c1cc2cc(COCC(F)(F)F)ccc2o1	25.7	32.5	836	–	–
COc1cc(Nc2ncc(F)c(-c3cc4c(o3)CCN(S(C)(=O)=O)C4)n2)cc(OC)c1OC	9.4	18.9	178	–	–
CN1CCN(c2ccc(Nc3nccc(-c4cc5c(o4)CCN(C(=O)CC#N)C5)n3)cc2)CC1	53.7	2.5	136	7440	–
CC1CC(C)CN(c2ccc(Nc3ncc(C(F)(F)F)c(-c4cc5ccc(C#N)cc5o4)n3)cc2)C1 (stereo not drawn)	7090	0.7	5170	–	–
